Patent US8044089B2, “3-3-di-substituted-oxindoles as inhibitors of translation initiation” (President and Fellows of Harvard College, priority 2004, dated 2011)
pIC50: −log10 of the molar value.

Tests used:
[1] = test system: intracellular Ca^2+ stores; experiment: Ca2+ release from intracellular stores (FURA-2AM loaded cells); assay type: cell-based; design: key to Ca^2+ (Ca^2+ release from intracellular stores): a “+” denotes release; a “+/−” denotes inconclusive
From the text: (§1) As a non-limiting example, compounds 1272 and 1273 (set forth in Table 1) were synthesized starting from 3-bromoaniline, which upon condensation with hydroxylamine and chloral hydrate followed by concentrated sulfuric acid yielded an inseparable regioisomeric mixture of 4- and 6-bromo isatins. The addition of the two phenyl groups to the three position of the oxindole allowed easy chromatographic separation of the 4- and 6-bromo-3,3-diphenyloxindoles 1272 and 1273. Table 1 sets forth biological data for diaryloxindole compounds including, but not limited to 1272 and 1273. For Tables 1-14, Ca^2+ refers to Ca^2+ release from intracellular stores where a “+” denotes release and a “+/−” denotes inconclusive; eIF2α-P refers to phosphorylation of eIF2α measured by Western blot; SRB refers to the inhibitory concentration to reduce cell growth by 50% (IC50) for growth inhibition of A549 lung cancer cells; and n.d. is not determined.
(§2) Without intending to be bound by theory, the mechanism of action of translation initiation inhibitors is set forth in FIG. 1, and includes the depletion (complete or partial depletion) of intracellular calcium (Ca^2+) stores and phosphorylation of eIF2α. Compounds synthesized using the approaches described herein were screened for their ability to partially deplete intracellular Ca^2+ stores using FURA-2AM loaded cells (Benzaquen et al. (1995) Nature Medicine, 1:534, incorporated herein by reference in its entirety for all purposes). A limited subset of compounds were further screened for their ability to deplete endoplasmic reticulum (ER) Ca^2+. The Ca^2+ content of the ER was monitored using ER-targeted, Ca^2+ sensitive, recombinant proteins. These recombinant proteins emitted light by fluorescent resonance energy transfer (FRET) as a function of the Ca^2+ content of the medium. Such assays are previously described (Miyawaki, A.; Mizuno, H.; Llopis, J.; Tsien, R. Y.; Jalink, K. Cameleons as cytosolic and intra-organellar calcium probes, Oxford University Press: Oxford, London, 2001; pp 3-16, incorporated herein by reference in its entirety for all purposes). Compounds that depleted Ca^2+ were further evaluated for their ability to phosphorylate eIF2α. eIF2α phosphorylation was measured by Western blot analysis using the phospho-specific anti-eIF2α antibody, as previously described (Aktas et al. (1998) Proc. Natl. Acad. Sci. USA, 95:8280, incorporated herein by reference in its entirety for all purposes).

eIF2α = eIF2α phosphorylation measured by Western blot; assay type: cell-based; details: for eIF2α-P (phosphorylation of eIF2α measured by Western blot): unit or reference not given
From the text: as §1, §2

A549 lung cancer cells = experiment: SRB growth inhibition of A549 lung cancer cells; assay type: cell-based, human; details: for pIC50: A549 lung cancer cells, unit inferred, read-out: SRB (IC50 for growth inhibition of A549 lung cancer cells); for growth inhibition of cancer cells (in words): A549
From the text: As a non-limiting example, compounds 1272 and 1273 (set forth in Table 1) were synthesized starting from 3-bromoaniline, which upon condensation with hydroxylamine and chloral hydrate followed by concentrated sulfuric acid yielded an inseparable regioisomeric mixture of 4- and 6-bromo isatins. The addition of the two phenyl groups to the three position of the oxindole allowed easy chromatographic separation of the 4- and 6-bromo-3,3-diphenyloxindoles 1272 and 1273. Table 1 sets forth biological data for diaryloxindole compounds including, but not limited to 1272 and 1273. For Tables 1-14, Ca^2+ refers to Ca^2+ release from intracellular stores where a “+” denotes release and a “+/−” denotes inconclusive; eIF2α-P refers to phosphorylation of eIF2α measured by Western blot; SRB refers to the inhibitory concentration to reduce cell growth by 50% (IC50) for growth inhibition of A549 lung cancer cells; and n.d. is not determined. […]

| Compound | Ca^2+ (Ca^2+ release from intracellular stores) [1] | eIF2α-P (phosphorylation of eIF2α measured by Western blot) (eIF2α) | pIC50 (A549 lung cancer cells) | eIF2α phosphorylation (in words) (eIF2α) | growth inhibition of cancer cells (in words) (A549 lung cancer cells) |
| --- | --- | --- | --- | --- | --- |
| C=CCN1C(=O)C(c2ccccc2)(c2cc(C(C)(C)C)ccc2O)c2ccccc21 (stereo not drawn) [Compound 1236] | +/− | 2.23 | 5.52 | – | – |
| CCc1ccc(O)c(C2(c3ccccc3)C(=O)Nc3ccccc32)c1 (stereo not drawn) [Compound 1285] | + | 2.96 | 5.10 | – | – |
| CC(C)(C)c1ccc(O)c(C2(c3ccccc3)C(=O)Nc3cccc(Br)c32)c1 (stereo not drawn) [Compound 1234] | + | 2.57 | 5.22 | – | – |
| CC(C)(C)c1ccc(O)c(C2(c3ccccc3)C(=O)Nc3c(C(=O)O)cccc32)c1 (stereo not drawn) [Compound 1408] | + | 2.08 | < 4.70 | – | – |
| CC(C)(C)c1ccc(O)c(C2(c3ccccc3)C(=O)Nc3ccc(I)cc32)c1 (stereo not drawn) [Compound 1213] | +/− | 2 | 5.52 | – | – |
| CCCCc1ccc(O)c(C2(c3ccccc3)C(=O)Nc3ccccc32)c1 (stereo not drawn) [Compound 1287] | + | 10.08 | 5.52 | – | – |
| O=C1Nc2ccccc2C1(c1ccc(Cl)cc1)c1ccccc1O (stereo not drawn) [Compound 1208] | + | 1.42 | 5.00 | – | – |
| O=C1Nc2c(Cn3ccnc3)ccc(Cl)c2C1(c1ccccc1)c1ccccc1 [Compound 1401] | +/− | 2.56 | < 4.70 | – | – |
| COc1ccc(S(=O)(=O)Nc2cc(O)c(C)cc2C2(c3ccccc3)C(=O)Nc3ccccc32)cc1 (stereo not drawn) [Compound 1590] | + | 1.12 | 5.30 | – | – |
| CCCc1ccc(O)c(C2(c3ccccc3)C(=O)Nc3ccccc32)c1 (stereo not drawn) [Compound 1283] | + | 7.67 | 5.52 | – | – |
| CC(C)(C)c1ccc(O)c(C2(c3cccc(Cl)c3)C(=O)Nc3ccccc32)c1 (stereo not drawn) [Compound 1221] | + | 3.24 | 5.52 | – | – |
| O=C(O)c1ccc(Cl)c2c1NC(=O)C2(c1ccccc1)c1ccccc1 [Compound 1392] | + | 2.76 | 5.40 | improved eIF2α phosphorylation | improved growth inhibition of cancer cells |
| CC(C)(C)c1ccc(O)c(C2(c3ccccc3)C(=O)Nc3ccc([N+](=O)[O-])cc32)c1 (stereo not drawn) [Compound 1212] | + | 1.28 | 5.40 | – | – |
| CC(C)(C)c1ccc(O)c(C2(c3ccccc3)C(=O)Nc3c(C(F)(F)F)cccc32)c1 (stereo not drawn) [Compound 1230] | +/− | 0.41 | 5.52 | – | – |
| CC(C)(C)c1ccc(O)c(C2(c3ccccc3)C(=O)Nc3ccc(Br)cc32)c1 (stereo not drawn) [Compound 1211] | + | 1.14 | 5.52 | – | – |
| O=C1Nc2ccccc2C1(c1ccccc1)c1ccc(OCCO)cc1 (stereo not drawn) [Compound 1299] | + | 0.71 | 5.30 | – | – |
| Cc1cc(C2(c3ccccc3)C(=O)Nc3ccccc32)c(NS(=O)(=O)c2cccc(C(F)(F)F)c2)cc1O (stereo not drawn) [Compound 1514] | + | 1.65 | 5.52 | – | – |
| CC(C)c1ccc(O)c(C2(c3ccccc3)C(=O)Nc3ccccc32)c1 (stereo not drawn) [Compound 1282] | + | 4.96 | 5.40 | – | – |
| COc1ccc(C2(c3ccccc3)C(=O)Nc3ccccc32)cc1 (stereo not drawn) [Compound 1294] | – | 1.52 | 5.00 | – | – |

| Compound | Ca^2+ (Ca^2+ release from intracellular stores) [1] | eIF2α-P (phosphorylation of eIF2α measured by Western blot) (eIF2α) | pIC50 (A549 lung cancer cells) | eIF2α phosphorylation (in words) (eIF2α) | growth inhibition of cancer cells (in words) (A549 lung cancer cells) |
| --- | --- | --- | --- | --- | --- |
| O=C1Nc2ccccc2C1(c1ccccc1)c1ccccc1O (stereo not drawn) [Compound 1197] | + | 1.50 | 4.85 | – | – |
| COC(=O)C(Cc1ccc(O)c(C2(c3ccccc3)C(=O)Nc3ccccc32)c1)NC(=O)OCC1c2ccccc2-c2ccccc21 (stereo not drawn) [Compound 1172] | + | 1.94 | – | – | – |
| COc1ccccc1C1(c2ccccc2)C(=O)Nc2ccccc21 (stereo not drawn) [Compound 1292] | +/− | 1.04 | 5.05 | – | – |
| CCc1ccc2c(c1)C(c1ccccc1)(c1cc(C(C)(C)C)ccc1O)C(=O)N2 (stereo not drawn) [Compound 1254] | + | 2.12 | 5.40 | – | – |
| Cc1ccccc1C1(c2cc(C(C)(C)C)ccc2O)C(=O)Nc2ccccc21 (stereo not drawn) [Compound 1225] | + | 1.69 | 5.40 | – | – |
| CC(C)(C)c1ccc(O)c(C2(C3CCCCC3)C(=O)Nc3ccccc32)c1 (stereo not drawn) [Compound 1277] | – | 1.08 | 5.00 | – | – |
| Cc1cc(C2(c3ccccc3)C(=O)Nc3ccccc32)c(NS(=O)(=O)c2ccc(I)cc2)cc1O (stereo not drawn) [Compound 1592] | + | 5.19 | 5.52 | – | – |
| COc1cccc(C2(c3ccccc3)C(=O)Nc3ccccc32)c1 (stereo not drawn) [Compound 1293] | +/− | 1.30 | 4.85 | – | – |
| CC(C)(C)OC(=O)NCCOc1ccc(C(C)(C)C)cc1C1(c2ccccc2)C(=O)Nc2ccccc21 (stereo not drawn) [Compound 1329] | – | 0.89 | 5.52 | – | – |
| CCCCCCCCCCCCC1(c2cc(C(C)(C)C)ccc2O)C(=O)Nc2ccccc21 (stereo not drawn) [Compound 1274] | – | 0.91 | 5.52 | – | – |
| CC(=O)Nc1ccc(S(=O)(=O)Nc2cc(O)c(C)cc2C2(c3ccccc3)C(=O)Nc3ccccc32)cc1 (stereo not drawn) [Compound 1512] | – | 1.01 | 5.40 | – | – |
| O=C1Nc2c(CO)ccc(Cl)c2C1(c1ccccc1)c1ccccc1 [Compound 1398] | – | 1.48 | 4.85 | reduced eIF2α phosphorylation relative to compound 1392 | reduced potency of tumor cell growth inhibition |
| C=CCCCOc1ccc(C2(c3cc(C(C)(C)C)ccc3O)C(=O)Nc3ccccc32)cc1 (stereo not drawn) [Compound 1218] | – | 1.36 | 5.15 | – | – |
| CCCCCCCCc1ccc(O)c(C2(c3ccccc3)C(=O)Nc3ccccc32)c1 (stereo not drawn) [Compound 1284] | – | 2.91 | 5.52 | – | – |
| O=C1Nc2ccc(S(=O)(=O)O)cc2C1(c1ccccc1)c1ccccc1 [Compound 1266] | – | 1.62 | 5.05 | – | – |
| Cc1cc(C2(c3ccccc3)C(=O)Nc3ccccc32)c(NS(=O)(=O)c2ccc(Oc3ccccc3)cc2)cc1O (stereo not drawn) [Compound 1594] | – | 3.73 | 5.30 | – | – |
| CCc1cccc2c1NC(=O)C2(c1ccccc1)c1ccccc1 [Compound 1268] | – | 2.19 | 4.85 | – | – |
| Cc1cc(C2(c3ccccc3)C(=O)Nc3ccccc32)c(NC(=O)c2ccc(C(C)(C)C)cc2)cc1O (stereo not drawn) [Compound 1493] | – | 2.06 | 5.52 | – | – |
